Where a name gives a salt, the structure may show the parent alone.
Target: T1, Androgen Receptor (Homo sapiens, UniProt P10275, T878A)
T1 construct: the AR gene was modified, using CRISPR/Cas9 editing, so the expressed AR protein included an 11 amino acid HiBiT tag; endogenous in cells; host or cells: clonal LnCaP-derived line, AR gene edited by CRISPR/Cas9
Test: Androgen Receptor Degradation Assay (Nano-Glo HiBiT)
Assay type: cell-based
Conditions: LNCaP, 18 h, HiBiT-tagged AR in human LnCaP cells, read-out: mean asymptote max
Procedure, shortened: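 LnCaP cells with CRISPR-knocked-in N-terminal HiBiT-tagged AR (10,000/well) treated 18 h at 37 °C with PROTACs over 11 threefold concentrations; lytic HiBiT luminescence normalised to DMSO (0%) and cell-free (100%) controls. Relative DC50 = 4-parameter fit inflection; absolute DC50 = 50% degradation interpolation; Dmax = maximum observed degradation.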

T1 sequence (P10275 whole entry T878A): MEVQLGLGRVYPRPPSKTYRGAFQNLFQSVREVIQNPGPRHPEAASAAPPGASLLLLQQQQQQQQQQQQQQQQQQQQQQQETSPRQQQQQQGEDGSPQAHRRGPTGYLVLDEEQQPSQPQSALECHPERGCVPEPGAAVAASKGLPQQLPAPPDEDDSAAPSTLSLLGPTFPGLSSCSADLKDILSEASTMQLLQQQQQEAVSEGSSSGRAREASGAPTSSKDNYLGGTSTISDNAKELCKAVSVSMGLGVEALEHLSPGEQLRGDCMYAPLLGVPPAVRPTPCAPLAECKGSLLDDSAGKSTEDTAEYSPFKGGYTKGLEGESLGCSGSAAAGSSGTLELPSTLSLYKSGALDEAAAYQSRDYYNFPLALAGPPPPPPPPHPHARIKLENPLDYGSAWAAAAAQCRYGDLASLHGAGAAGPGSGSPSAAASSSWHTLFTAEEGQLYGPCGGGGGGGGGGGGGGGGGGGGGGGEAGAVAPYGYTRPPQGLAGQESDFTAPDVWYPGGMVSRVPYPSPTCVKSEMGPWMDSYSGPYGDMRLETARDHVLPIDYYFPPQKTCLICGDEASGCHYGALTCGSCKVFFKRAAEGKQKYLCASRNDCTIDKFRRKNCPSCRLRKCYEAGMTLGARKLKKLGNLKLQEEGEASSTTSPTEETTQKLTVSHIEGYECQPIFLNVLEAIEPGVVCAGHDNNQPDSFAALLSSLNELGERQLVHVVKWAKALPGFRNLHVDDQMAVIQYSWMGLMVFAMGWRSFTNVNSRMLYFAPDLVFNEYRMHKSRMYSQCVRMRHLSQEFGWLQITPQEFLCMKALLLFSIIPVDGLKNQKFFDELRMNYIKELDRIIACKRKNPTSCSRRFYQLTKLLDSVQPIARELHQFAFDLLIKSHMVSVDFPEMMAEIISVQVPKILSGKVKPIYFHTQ
T1 sequence (Q96SW2 whole entry partner): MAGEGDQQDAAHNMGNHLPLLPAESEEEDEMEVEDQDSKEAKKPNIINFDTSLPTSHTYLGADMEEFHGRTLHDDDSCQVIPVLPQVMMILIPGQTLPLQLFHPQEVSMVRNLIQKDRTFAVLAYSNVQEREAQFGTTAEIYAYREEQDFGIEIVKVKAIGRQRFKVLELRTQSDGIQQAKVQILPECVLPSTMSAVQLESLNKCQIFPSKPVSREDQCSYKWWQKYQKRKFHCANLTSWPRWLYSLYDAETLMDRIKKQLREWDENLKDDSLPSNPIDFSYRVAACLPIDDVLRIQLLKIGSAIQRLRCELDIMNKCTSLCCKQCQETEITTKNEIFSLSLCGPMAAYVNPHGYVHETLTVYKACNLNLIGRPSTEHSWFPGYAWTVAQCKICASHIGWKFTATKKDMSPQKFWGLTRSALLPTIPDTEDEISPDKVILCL
T1 sequence (Q16531 whole entry partner): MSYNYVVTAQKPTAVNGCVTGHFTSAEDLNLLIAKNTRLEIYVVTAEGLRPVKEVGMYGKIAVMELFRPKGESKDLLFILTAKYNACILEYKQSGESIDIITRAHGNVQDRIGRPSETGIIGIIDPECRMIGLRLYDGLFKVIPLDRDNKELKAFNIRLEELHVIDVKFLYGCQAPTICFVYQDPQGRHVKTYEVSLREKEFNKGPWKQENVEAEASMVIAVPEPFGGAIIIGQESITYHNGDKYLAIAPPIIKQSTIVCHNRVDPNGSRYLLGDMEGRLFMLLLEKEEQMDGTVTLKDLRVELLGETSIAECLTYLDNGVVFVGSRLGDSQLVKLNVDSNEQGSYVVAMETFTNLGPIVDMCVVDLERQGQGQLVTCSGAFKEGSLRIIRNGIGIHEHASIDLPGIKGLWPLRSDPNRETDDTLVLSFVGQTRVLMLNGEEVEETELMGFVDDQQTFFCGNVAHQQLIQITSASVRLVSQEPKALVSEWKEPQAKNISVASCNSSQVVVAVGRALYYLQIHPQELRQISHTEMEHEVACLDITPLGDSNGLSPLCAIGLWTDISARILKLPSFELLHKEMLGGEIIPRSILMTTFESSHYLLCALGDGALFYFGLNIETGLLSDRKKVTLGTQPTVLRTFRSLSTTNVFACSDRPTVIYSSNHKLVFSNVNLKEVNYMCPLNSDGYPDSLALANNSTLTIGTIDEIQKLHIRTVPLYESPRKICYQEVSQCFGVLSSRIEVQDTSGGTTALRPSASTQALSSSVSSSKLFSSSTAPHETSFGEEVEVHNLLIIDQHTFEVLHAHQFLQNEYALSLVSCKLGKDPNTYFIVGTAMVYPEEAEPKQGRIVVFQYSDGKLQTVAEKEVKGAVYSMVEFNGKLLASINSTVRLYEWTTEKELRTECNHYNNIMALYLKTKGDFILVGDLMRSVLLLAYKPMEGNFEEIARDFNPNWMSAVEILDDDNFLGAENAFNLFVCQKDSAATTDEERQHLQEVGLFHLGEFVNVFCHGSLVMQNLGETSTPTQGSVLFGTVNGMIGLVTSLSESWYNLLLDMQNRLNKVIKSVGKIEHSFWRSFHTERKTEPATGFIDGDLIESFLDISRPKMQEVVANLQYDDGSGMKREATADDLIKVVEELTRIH

Row | SMILES | Dmax [%]
1 | N#Cc1ccc(O[C@H]2CC[C@H](NC(=O)c3ccc(N4CCC(CN5CCC(n6ncc7c(N8CCC(=O)NC8=O)ccnc76)CC5)CC4)nn3)CC2)cc1C(F)(F)F [EAR210, N-((1r,4r)-4-(4-Cyano-3-(trifluoromethyl)phenoxy)cyclohexyl)-6-(4-((4-(4-(2,4-dioxotetrahydropyrimidin-1(2H)-yl)-1H-pyrazolo[3,4-b]pyridin-1-yl)piperidin-1-yl)methyl)piperidin-1-yl)pyridazine-3-carboxamide] | ≥ 50
2 | N#Cc1ccc(O[C@H]2CC[C@H](NC(=O)c3cnc(N4CCC(CN5CCC(n6ccc7c(N8CCC(=O)NC8=O)nccc76)CC5)CC4)nc3)CC2)cc1Cl [EAR211, N-((1r,4r)-4-(3-chloro-4-cyanophenoxy)cyclohexyl)-2-(4-((4-(4-(2,4-dioxotetrahydropyrimidin-1(2H)-yl)-1H-pyrrolo[3,2-c]pyridin-1-yl)piperidin-1-yl)methyl)piperidin-1-yl)pyrimidine-5-carboxamide hydrochloride] | ≥ 50
3 | N#Cc1ccc(O[C@H]2CC[C@H](NC(=O)c3ccc(N4CCC(CN5CCC(n6ccc7c(N8CCC(=O)NC8=O)ccnc76)CC5)CC4)nn3)CC2)cc1C(F)(F)F [EAR212, N-((1r,4r)-4-(4-Cyano-3-(trifluoromethyl)phenoxy)cyclohexyl)-6-(4-((4-(4-(2,4-dioxotetrahydropyrimidin-1(2H)-yl)-1H-pyrrolo[2,3-b]pyridin-1-yl)piperidin-1-yl)methyl)piperidin-1-yl)pyridazine-3-carboxamide] | ≥ 50
4 | CC1(CN2CCC(n3ccc4c(N5CCC(=O)NC5=O)cccc43)CC2)CCN(c2ccc(C(=O)N[C@H]3CC[C@H](Oc4ccc(C#N)c(Cl)c4)CC3)nn2)CC1 [EAR213, N-((1r,4r)-4-(3-Chloro-4-cyanophenoxy)cyclohexyl)-6-(4-((4-(4-(2,4-dioxotetrahydropyrimidin-1(2H)-yl)-1H-indol-1-yl)piperidin-1-yl)methyl)-4-methylpiperidin-1-yl)pyridazine-3-carboxamide] | ≥ 50
5 | CN(c1ccc(C#N)c(Cl)c1)[C@H]1CC[C@H](NC(=O)c2ccc(N3CCC(CN4CCC(n5ccc6c(N7CCC(=O)NC7=O)ncnc65)CC4)CC3)nn2)CC1 [EAR214, N-((1r,4r)-4-((3-Chloro-4-cyanophenyl)(methyl)amino)cyclohexyl)-6-(4-((4-(4-(2,4-dioxotetrahydropyrimidin-1(2H)-yl)-7H-pyrrolo[2,3-d]pyrimidin-7-yl)piperidin-1-yl)methyl)piperidin-1-yl)pyridazine-3-carboxamide hydrochloride] | ≥ 50
6 | N#Cc1ccc(O[C@H]2CC[C@H](NC(=O)c3cnc(N4CCC(CN5CCC(n6ncc7c(N8CCC(=O)NC8=O)cc(F)cc76)CC5)CC4)cn3)CC2)cc1Cl [EAR217, N-((1r,4r)-4-(3-chloro-4-cyanophenoxy)cyclohexyl)-5-(4-((4-(4-(2,4-dioxotetrahydropyrimidin-1(2H)-yl)-6-fluoro-1H-indazol-1-yl)piperidin-1-yl)methyl)piperidin-1-yl)pyrazine-2-carboxamide hydrochloride] | ≥ 50
7 | N#Cc1ccc(O[C@H]2CC[C@H](NC(=O)c3ccc(N4CC5(CCC(CN6CCC(n7ncc8c(N9CCC(=O)NC9=O)cccc87)CC6)CO5)C4)nn3)CC2)cc1Cl (some centres unmarked) [EAR218, N-((1r,4r)-4-(3-Chloro-4-cyanophenoxy)cyclohexyl)-6-(7-((4-(4-(2,4-dioxotetrahydropyrimidin-1(2H)-yl)-1H-indazol-1-yl)piperidin-1-yl)methyl)-5-oxa-2-azaspiro[3.5]nonan-2-yl)pyridazine-3-carboxamide] | ≥ 50
8 | N#Cc1ccc(O[C@H]2CC[C@H](NC(=O)c3ccc(N4CC5CC(CN6CCC(n7ncc8c(N9CCC(=O)NC9=O)cccc87)CC6)(C5)C4)nn3)CC2)cc1Cl [EAR219, N-((1r,4r)-4-(3-chloro-4-cyanophenoxy)cyclohexyl)-6-(1-((4-(4-(2,4-dioxotetrahydropyrimidin-1(2H)-yl)-1H-indazol-1-yl)piperidin-1-yl)methyl)-3-azabicyclo[3.1.1]heptan-3-yl)pyridazine-3-carboxamide] | ≥ 50
9 | CN(CCCCCN1CCC(n2ncc3c(N4CCC(=O)NC4=O)cccc32)CC1)c1ccc(C(=O)N[C@H]2CC[C@H](Oc3ccc(C#N)c(Cl)c3)CC2)nn1 [EAR220, N-((1r,4r)-4-(3-chloro-4-cyanophenoxy)cyclohexyl)-6-((5-(4-(4-(2,4-dioxotetrahydropyrimidin-1(2H)-yl)-1H-indazol-1-yl)piperidin-1-yl)pentyl)(methyl)amino)pyridazine-3-carboxamide] | ≥ 50
10 | N#Cc1ccc(O[C@H]2CC[C@H](NC(=O)c3ccc(N4CCC(C#N)(CCN5CCC(n6ncc7c(N8CCC(=O)NC8=O)cccc76)CC5)CC4)nn3)CC2)cc1Cl [EAR221, N-((1r,4r)-4-(3-chloro-4-cyanophenoxy)cyclohexyl)-6-(4-cyano-4-(2-(4-(4-(2,4-dioxotetrahydropyrimidin-1(2H)-yl)-1H-indazol-1-yl)piperidin-1-yl)ethyl)piperidin-1-yl)pyridazine-3-carboxamide] | ≥ 50
11 | CC1(C)CCN(c2ccc(C(=O)N[C@H]3CC[C@H](Oc4ccc(C#N)c(Cl)c4)CC3)nn2)CC1CN1CCC(n2ncc3c(N4CCC(=O)NC4=O)cccc32)CC1 (some centres unmarked) [EAR222, N-((1r,4r)-4-(3-chloro-4-cyanophenoxy)cyclohexyl)-6-(3-((4-(4-(2,4-dioxotetrahydropyrimidin-1(2H)-yl)-1H-indazol-1-yl)piperidin-1-yl)methyl)-4,4-dimethylpiperidin-1-yl)pyridazine-3-carboxamide] | ≥ 50
12 | CC1(C)CC(CN2CCC(n3ncc4c(N5CCC(=O)NC5=O)cccc43)CC2)CN(c2ccc(C(=O)N[C@H]3CC[C@H](Oc4ccc(C#N)c(Cl)c4)CC3)nn2)C1 (some centres unmarked) [EAR223, N-((1r,4r)-4-(3-chloro-4-cyanophenoxy)cyclohexyl)-6-(5-((4-(4-(2,4-dioxotetrahydropyrimidin-1(2H)-yl)-1H-indazol-1-yl)piperidin-1-yl)methyl)-3,3-dimethylpiperidin-1-yl)pyridazine-3-carboxamide] | ≥ 50
13 | N#Cc1ccc(O[C@H]2CC[C@H](NC(=O)c3ccc(N4CC5(CC(CN6CCC(n7ncc8c(N9CCC(=O)NC9=O)cccc87)CC6)C5)C4)nn3)CC2)cc1Cl [EAR224, N-((1r,4r)-4-(3-chloro-4-cyanophenoxy)cyclohexyl)-6-(6-((4-(4-(2,4-dioxotetrahydropyrimidin-1(2H)-yl)-1H-indazol-1-yl)piperidin-1-yl)methyl)-2-azaspiro[3.3]heptan-2-yl)pyridazine-3-carboxamide] | ≥ 50
14 | N#Cc1ccc(O[C@H]2CC[C@H](NC(=O)c3ccc(N4CC5(CCC(CN6CCC(n7ncc8c(N9CCC(=O)NC9=O)cccc87)CC6)CC5)C4)nn3)CC2)cc1Cl [EAR225, N-((1r,4r)-4-(3-chloro-4-cyanophenoxy)cyclohexyl)-6-(7-((4-(4-(2,4-dioxotetrahydropyrimidin-1(2H)-yl)-1H-indazol-1-yl)piperidin-1-yl)methyl)-2-azaspiro[3.5]nonan-2-yl)pyridazine-3-carboxamide] | ≥ 50
15 | N#Cc1ccc(O[C@H]2CC[C@H](NC(=O)c3ccc(N4CC5CCC(C4)C5CN4CCC(n5ncc6c(N7CCC(=O)NC7=O)cccc65)CC4)nn3)CC2)cc1Cl (some centres unmarked) [EAR226, N-((1r,4r)-4-(3-chloro-4-cyanophenoxy)cyclohexyl)-6-(8-((4-(4-(2,4-dioxotetrahydropyrimidin-1(2H)-yl)-1H-indazol-1-yl)piperidin-1-yl)methyl)-3-azabicyclo[3.2.1]octan-3-yl)pyridazine-3-carboxamide] | ≥ 50
16 | C[C@H]1CN(c2ccc(C(=O)N[C@H]3CC[C@H](Oc4ccc(C#N)c(Cl)c4)CC3)nn2)CC[C@H]1CN1CCC(n2ncc3c(N4CCC(=O)NC4=O)cccc32)CC1 [EAR227, N-((1r,4R)-4-(3-chloro-4-cyanophenoxy)cyclohexyl)-6-((3R,4R)-4-((4-(4-(2,4-dioxotetrahydropyrimidin-1(2H)-yl)-1H-indazol-1-yl)piperidin-1-yl)methyl)-3-methylpiperidin-1-yl)pyridazine-3-carboxamide] | ≥ 50
17 | N#Cc1ccc(O[C@H]2CC[C@H](NC(=O)c3ccc(N4CC5CC(C4)C5CN4CCC(n5ncc6c(N7CCC(=O)NC7=O)cccc65)CC4)nn3)CC2)cc1Cl (some centres unmarked) [EAR228, N-((1r,4r)-4-(3-chloro-4-cyanophenoxy)cyclohexyl)-6-(6-((4-(4-(2,4-dioxotetrahydropyrimidin-1(2H)-yl)-1H-indazol-1-yl)piperidin-1-yl)methyl)-3-azabicyclo[3.1.1]heptan-3-yl)pyridazine-3-carboxamide] | ≥ 50
18 | CC1CC(CN2CCC(n3ncc4c(N5CCC(=O)NC5=O)cccc43)CC2)CCN1c1ccc(C(=O)N[C@H]2CC[C@H](Oc3ccc(C#N)c(Cl)c3)CC2)nn1 (some centres unmarked) [EAR229] | ≥ 50
19 | N#Cc1ccc(O[C@H]2CC[C@H](NC(=O)c3ccc(N4C5CCC4CC(CN4CCC(n6ncc7c(N8CCC(=O)NC8=O)cccc76)CC4)C5)nn3)CC2)cc1Cl (some centres unmarked) [EAR230, N-((1r,4r)-4-(3-chloro-4-cyanophenoxy)cyclohexyl)-6-(3-((4-(4-(2,4-dioxotetrahydropyrimidin-1(2H)-yl)-1H-indazol-1-yl)piperidin-1-yl)methyl)-8-azabicyclo[3.2.1]octan-8-yl)pyridazine-3-carboxamide] | ≥ 50
20 | N#Cc1ccc(O[C@H]2CC[C@H](NC(=O)c3ccc(N4CCC(OCCN5CCC(n6ncc7c(N8CCC(=O)NC8=O)cccc76)CC5)CC4)nn3)CC2)cc1Cl [EAR231, N-((1r,4r)-4-(3-chloro-4-cyanophenoxy)cyclohexyl)-6-(4-(2-(4-(4-(2,4-dioxotetrahydropyrimidin-1(2H)-yl)-1H-indazol-1-yl)piperidin-1-yl)ethoxy)piperidin-1-yl)pyridazine-3-carboxamide] | ≥ 50
